These results are taken from patent US10899738B2 (THE REGENTS OF THE UNIVERSITY OF MICHIGAN, priority 2016, dated 2021).

The IC50 is the concentration that inhibits the measured activity by half.

Sequence of menin protein (O00255 whole entry): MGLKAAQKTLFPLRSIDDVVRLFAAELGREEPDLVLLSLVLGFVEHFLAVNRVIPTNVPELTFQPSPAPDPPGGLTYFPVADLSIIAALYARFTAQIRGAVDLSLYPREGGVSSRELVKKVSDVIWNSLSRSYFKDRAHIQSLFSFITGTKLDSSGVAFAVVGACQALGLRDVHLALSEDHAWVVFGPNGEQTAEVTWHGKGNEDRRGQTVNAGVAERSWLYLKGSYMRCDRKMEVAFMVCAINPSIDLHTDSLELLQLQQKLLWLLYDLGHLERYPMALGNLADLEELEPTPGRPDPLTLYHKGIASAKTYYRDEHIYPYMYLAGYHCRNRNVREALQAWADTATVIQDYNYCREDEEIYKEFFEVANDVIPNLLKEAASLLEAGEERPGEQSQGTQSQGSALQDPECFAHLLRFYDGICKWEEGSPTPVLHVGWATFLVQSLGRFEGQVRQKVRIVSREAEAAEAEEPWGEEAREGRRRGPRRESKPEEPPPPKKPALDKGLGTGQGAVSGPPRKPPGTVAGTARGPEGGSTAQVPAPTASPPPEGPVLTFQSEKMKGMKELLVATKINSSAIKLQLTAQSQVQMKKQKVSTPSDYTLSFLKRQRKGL

The first assay deals with menin protein (Homo sapiens (Human), UniProt O00255). The experiment in a line: biochemical. It counts as binding. The following applies: FP competitive binding; menin protein 4 nM, FAM-MM2 probe 2 nM. In short, it runs like this:
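Competitive fluorescence polarization assay using FAM-labelled MLL1 peptide probe FAM-MM2 (2 nM final) preincubated with menin (4 nM final) in PBS with 0.02% bovine γ-globulin, 4% DMSO and 0.01% Triton X-100. Compounds were added and incubated 30 min at room temperature. IC50 came from nonlinear regression of competition curves, with Ki also derived.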
Turning to `N#Cc1ccc(OCCCN2CC(C3(C4CCCC4)c4ccccc4CCN3CCCOc3ccc(C#N)cc3)C2)cc1` (stereo not drawn) [compound 61], the “Menin Binding Affinity IC50 (μM)” value is “No inhibition”.

For `COC1CCC(C2(C3CCN(CCCOc4ccc(C#N)cc4)CC3)C(=O)NCc3ccccc32)C1` (stereo not drawn) [compound 26, 4-(3-(4-(4-(3-methoxycyclopentyl)-3-oxo-1,2,3,4-tetrahydroisoquinolin-4-yl)piperidin-1-yl)propoxy)benzonitrile], the “Menin Binding Affinity IC50 (μM)” value is “No inhibition”.

Regarding `c1ccc2c(c1)CCNC2(c1ccncc1)C1CCCC1` (stereo not drawn) [compound 78, 1-cyclopentyl-1-(pyridin-4-yl)-1,2,3,4-tetrahydroisoquinoline], the “Menin Binding Affinity IC50 (μM)” value was “No inhibition”.

In the case of `N#Cc1ccc(OCCCNc2ccc(C(O)(c3ccccc3)C3CCCC3)cn2)cc1` (stereo not drawn) [compound 125, 4-(3-((5-(cyclopentyl(hydroxy)(phenyl)methyl)pyridin-2-yl)amino)propoxy)benzonitrile], the “Menin Binding Affinity IC50 (μM)” value is recorded as “No inhibition”.

Still in this assay, the particulars now being: FP competitive binding; menin protein 4 nM, FAM-MM2 probe 2 nM; read-out: Menin Binding Affinity IC50.
For `CCNC(=O)O[C@H]1CCC[C@@H]1C(C#N)(c1ccccc1)C1CCN(CC2CN(c3ccc(S(=O)(=O)c4ccncc4)cc3)C2)CC1` (mixture of isomers) [compound 213, rac-(1S,2R)-2-(cyano(phenyl)(1-((1-(4-(pyridin-4-ylsulfonyl)phenyl)azetidin-3-yl)methyl)piperidin-4-yl)methyl)cyclopentyl ethylcarbamate], the IC50 was 0.17 µM.

For `COC(=O)N[C@@H]1CCC[C@H]1C(C#N)(c1ccccc1)C1CCN(CC2CN(c3ccc(S(=O)(=O)c4ccc(C(=O)O)cc4)cc3)C2)CC1` (mixture of isomers) [compound 352, rac-4-((4-(3-((4-(cyano((1S,2R)-2-((methoxycarbonyl)amino)cyclopentyl)(phenyl)methyl)piperidin-1-yl)methyl)azetidin-1-yl)phenyl)sulfonyl)benzoic acid], the IC50 worked out at 2.7 µM.

For the compound `CNC(=O)O[C@H]1CCC[C@@H]1C(Cn1ccnc1)(c1ccccc1)C1CCN(CC2CN(c3ccc(S(=O)(=O)c4ccccc4)cc3)C2)CC1` (mixture of isomers) [compound 236, rac-(1S,2R)-2-(2-(1H-imidazol-1-yl)-1-phenyl-1-(1-((1-(4-(phenylsulfonyl)phenyl)azetidin-3-yl)methyl)piperidin-4-yl)ethyl)cyclopentyl methylcarbamate], the half-maximal inhibitory concentration (IC50) was 0.012 µM.

On to `O=S(=O)(c1ccc(O[C@H]2C[C@@H](N3CCC(C4(C5CCCC5)NCCc5ccccc54)CC3)C2)cc1)C1CC1` (stereo partly drawn) [compound 89, 1-cyclopentyl-1-(1-((1s,3s)-3-(4-(cyclopropylsulfonyl)phenoxy)cyclobutyl)piperidin-4-yl)-1,2,3,4-tetrahydroisoquinoline], for which the IC50 was 13.1 µM.

As for `CCCCC(=O)c1cc2cc(CCN3CCC(C4(C5CCCC5)NCCc5ccccc54)CC3)ccc2n1C` (stereo not drawn) [compound 65, 1-(5-(2-(4-(1-cyclopentyl-1,2,3,4-tetrahydroisoquinolin-1-yl)piperidin-1-yl)ethyl)-1-methyl-1H-indol-2-yl)pentan-1-one], the 50% inhibitory concentration (IC50) was 2.8 µM.

`CNC(=O)O[C@@H]1CCC[C@H]1C(C#N)(c1ccccc1)C1CCN(CC2CN(c3ccc(S(=O)(=O)c4nn(C)cc4Br)cc3)C2)CC1` (mixture of isomers) [compound 229, rac-(1R,2S)-2-((1-((1-(4-((4-bromo-1-methyl-1H-pyrazol-3-yl)sulfonyl)phenyl)azetidin-3-yl)methyl)piperidin-4-yl)(cyano)(phenyl)methyl) cyclopentyl methylcarbamate]: the 50% inhibitory concentration (IC50) came to 0.16 µM.

Regarding `O=S(=O)(c1ccc(N2CC(CN3CCC(C4(C5CCCC5)COCc5ccccc54)CC3)C2)cc1)C1CC1` (stereo not drawn) [compound 38, 4-(4-cyclopentylisochroman-4-yl)-1-((1-(4-(cyclopropylsulfonyl)phenyl)azetidin-3-yl)methyl)piperidine], the IC50 turned out to be 0.304 µM.

As to `CCCC(C)C1(C2CCN(CCCOc3ccc(C#N)cc3)CC2)NCCc2ccccc21` (stereo not drawn) [compound 245, 4-(3-(4-(1-(pentan-2-yl)-1,2,3,4-tetrahydroisoquinolin-1-yl)piperidin-1-yl)propoxy)benzonitrile], the half-maximal inhibitory concentration (IC50) was found to be 3.3 µM.

In the case of `COC(=O)N[C@@H]1CCC[C@H]1C(C#N)(c1ccccc1)C1CCN(CC2CN(c3ccc(S(=O)(=O)c4ccncc4)cc3)C2)CC1` (mixture of isomers) [Cpd. No. 346, methyl (rac-(1R,2S)-2-(cyano(phenyl)(1-((1-(4-(pyridin-4-ylsulfonyl)phenyl)azetidin-3-yl)methyl)piperidin-4-yl)methyl)cyclopentyl)carbamate], the 50% inhibitory concentration (IC50) amounted to 0.569 µM.

In the case of `CSC[C@H]1CCC[C@@H]1C(C#N)(c1ccccc1)C1CCN(CC2CN(c3ccc(S(=O)(=O)c4ccncc4)cc3)C2)CC1` (mixture of isomers) [compound 259, rac-2-((1S,2S)-2-((methylthio)methyl)cyclopentyl)-2-phenyl-2-(1-((1-(4-(pyridin-4-ylsulfonyl)phenyl)azetidin-3-yl)methyl)piperidin-4-yl)acetonitrile], the half-inhibitory concentration (IC50) was determined as 10.3 µM.

As for `CS(=O)(=O)c1ccc(N2CC(CN3CCC(C4(C5CCCC5)NCCc5ccccc54)CC3)C2)cc1` (stereo not drawn) [compound 132, 1-cyclopentyl-1-(1-((1-(4-(methylsulfonyl)phenyl)azetidin-3-yl)methyl)piperidin-4-yl)-1,2,3,4-tetrahydroisoquinoline], the half-inhibitory concentration (IC50) turned out to be 0.077 µM.

With `CC(=O)N[C@@H]1CCC[C@H]1C(C#N)(c1ccccc1)C1CCN(CC2CN(c3ccc(C#N)cc3)C2)CC1` (mixture of isomers) [compound 383, rac-N-((1R,2S)-2-(cyano(1-((1-(4-cyanophenyl)azetidin-3-yl)methyl)piperidin-4-yl)(phenyl)methyl)cyclopentyl)acetamide], the half-maximal inhibitory concentration (IC50) turned out to be 2.5 µM.

Take `CC(=O)O[C@@H]1CCC[C@H]1C(C#N)(c1cccc(F)c1)C1CCN(CC2CN(c3ccc(S(=O)(=O)c4ccccc4)cc3)C2)CC1` (mixture of isomers) [compound 313, rac-(1R,2S)-2-(cyano(3-fluorophenyl)(1-((1-(4-(phenylsulfonyl)phenyl)azetidin-3-yl)methyl)piperidin-4-yl)methyl)cyclopentyl acetate]: the IC50 was found to be 13.8 µM.

For `O=C(CN1CCC(C2(C3CCCC3)NCCc3ccccc32)CC1)N1CCCC1` (stereo not drawn) [compound 74, 2-(4-(1-cyclopentyl-1,2,3,4-tetrahydroisoquinolin-1-yl)piperidin-1-yl)-1-(pyrrolidin-1-yl)ethan-1-one], the IC50 was determined as 3.1 µM.

As for `N#Cc1ccc(N2CC(CN3CCC(C4(C5CCCC5)NCCc5ccccc54)CC3)C2)c(Cl)c1` (stereo not drawn) [compound 139, 3-chloro-4-(3-((4-(1-cyclopentyl-1,2,3,4-tetrahydroisoquinolin-1-yl)piperidin-1-yl)methyl)azetidin-1-yl)benzonitrile], the 50% inhibitory concentration (IC50) came to 0.073 µM.

Regarding `CCNC(=O)O[C@@H]1CCC[C@H]1C(C#N)(c1ccccc1)C1CCN(CC2CN(c3ccc(S(=O)(=O)c4ccncc4)cc3)C2)CC1` (mixture of isomers) [compound 214, rac-(1R,2S)-2-(cyano(phenyl)(1-((1-(4-(pyridin-4-ylsulfonyl)phenyl)azetidin-3-yl)methyl)piperidin-4-yl)methyl)cyclopentyl ethylcarbamate], the half-maximal inhibitory concentration (IC50) was found to be 3.4 µM.

Turning to `CCc1cc(S(=O)(=O)c2ccc(N3CC(CN4CCC(C5(C6CCCC6)CN(CC)Cc6ccccc65)CC4)C3)cc2)ccn1` (stereo not drawn) [compound 155, 4-cyclopentyl-2-ethyl-4-(1-((1-(4-((2-ethylpyridin-4-yl)sulfonyl)phenyl)azetidin-3-yl)methyl)piperidin-4-yl)-1,2,3,4-tetrahydroisoquinoline], the IC50 was determined as 0.016 µM.
